In the assay the target is T1, GST-HS90A (Mus musculus, UniProt P07901).
T1 construct: gene Hsp90aa1; mouse Hsp90aa1 coding region in pGEX-4T-1, N-terminal GST fusion (tag kept), expressed in E. coli, purified, RED-NHS labelled
Briefly: microscale thermophoresis, RED-NHS labelled protein. The format is binding. (In general: MST reads how a fluorescent partner responds to local heating, with and without ligand.)

In paper PMC8632880, “Mitochondrial proteome of mouse oocytes and cisplatin-induced shifts in protein profile” (Acta Pharmacologica Sinica, 2021) one finds Kd data, which are given here for one compound.

One may read the Kd as the equilibrium constant for the complex coming apart. In turn, `[NH2][Pt]([NH2])([Cl])[Cl]` [cisplatin] came in with a Kd of 5.47 ± 0.2 µM.
